The target of this assay is T1, Recombinant human HSD17B13 enzyme (Homo sapiens, UniProt Q7Z5P4).
T1 sequence (Q7Z5P4 20-300): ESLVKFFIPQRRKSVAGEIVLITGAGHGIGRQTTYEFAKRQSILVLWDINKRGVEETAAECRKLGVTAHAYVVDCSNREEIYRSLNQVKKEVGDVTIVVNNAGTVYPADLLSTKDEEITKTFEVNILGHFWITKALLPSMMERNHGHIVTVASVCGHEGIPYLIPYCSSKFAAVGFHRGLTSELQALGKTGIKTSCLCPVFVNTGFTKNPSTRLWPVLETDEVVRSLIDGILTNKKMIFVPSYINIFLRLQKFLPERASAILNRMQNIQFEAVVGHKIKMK
In words: HSD17b13 NAD(P)H-Glo biochemical assay. The note with it: 50 uM estradiol, 1 mM NAD+, NAD(P)H-Glo luminescence; read-out: HSD17β13 IC50. Put shortly: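 Luminescent NAD(P)H-Glo read-out, taken after 1 hour at RT, measured cofactor reduction. Substrate and cofactor were estradiol at 50 uM and NAD+ at 1 mM final, reacted with the recombinant human enzyme for 3 hours at 37° C in 20 mM Tris pH7.4, 0.002% Tween-20, 0.02% BSA. Compound was pre-incubated with enzyme for 20 minutes at RT.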

What is called IC50 is the midpoint of a concentration-inhibition curve. For the compound `Cn1nc(-c2cc(C(F)(F)F)c(F)c(O)c2F)c2cnc(N3CCOC(CO)C3)nc21` (stereo not drawn) [Compound 18.02, 2,6-Difluoro-3-(6-(2-(hydroxymethyl)morpholino)-1-methyl-1H-pyrazolo[3,4-d]pyrimidin-3-y1)-5-(trifluoromethyl)phenol], the IC50 is 100 to 1000 nM.

As to `COCC1COCCN1c1ncc2c(-c3cc(C(F)(F)F)c(F)c(O)c3F)nn(C)c2n1` (stereo not drawn) [Compound 18.03, 2,6-Difluoro-3-(6-(3-(methoxymethyl)morpholino)-1-methyl-1H-pyrazolo[3,4-d]pyrimidin-3-y1)-5-(trifluoromethyl)phenol], the half-inhibitory concentration (IC50) is < 100 nM.

In the case of `Cn1nc(-c2cc(C(F)(F)F)c(F)c(O)c2F)c2cnc(N3CCC(O)CC3)nc21` [Compound 18.04, 1-(3-(2,4-Difluoro-3-hydroxy-5-(trifluoromethyl)phenyl)-1-methyl-1H-pyrazolo[3,4-d]pyrimidin-6-y1)piperidin-4-ol], the IC50 is < 100 nM.

Turning to `Cn1nc(-c2cc(C(F)(F)F)c(F)c(O)c2F)c2cnc(N3CCCC(O)C3)nc21` (stereo not drawn) [Compound 18.05, 1-(3-(2,4-Difluoro-3-hydroxy-5-(trifluoromethyl)phenyl)-1-methyl-1H-pyrazolo[3,4-d]pyrimidin-6-y1)piperidin-3-ol], the IC50 is < 100 nM.

Turning to `COC1CCCN(c2ncc3c(-c4cc(C(F)(F)F)c(F)c(O)c4F)nn(C)c3n2)C1` (stereo not drawn) [Compound 18.06, 2,6-Difluoro-3-(6-(3-methoxypiperidin-1-yl)-1-methyl-1H-pyrazolo[3,4-d]pyrimidin-3-yl)-5-(trifluoromethyl)phenol], the IC50 is < 100 nM.

On to `Cn1nc(-c2cc(C(F)(F)F)c(F)c(O)c2F)c2cnc(N3CCOC(C(N)=O)C3)nc21` (stereo not drawn) [Compound 18.07, 4-(3-(2,4-Difluoro-3-hydroxy-5-(trifluoromethyl)phenyl)-1-methyl-1H-pyrazolo[3,4-d]pyrimidin-6-yl)morpholine-2-carboxamide], for which the IC50 was < 100 nM.

As to `CN1CCC2(CCN(c3ncc4c(-c5cc(C(F)(F)F)c(F)c(O)c5F)nn(C)c4n3)CC2)C1=O` [Compound 18.08, 8-(3-(2,4-Difluoro-3-hydroxy-5-(trifluoromethyl)phenyl)-1-methyl-1H-pyrazolo[3,4-d]pyrimidin-6-yl)-2-methyl-2,8-diazaspiro[4.5]decan-1-one], the IC50 was < 100 nM.

`Cn1nc(-c2cc(C(F)(F)F)c(F)c(O)c2F)c2cnc(N3CCC(C(N)=O)CC3)nc21` [Compound 18.09, 1-(3-(2,4-Difluoro-3-hydroxy-5-(trifluoromethyl)phenyl)-1-methyl-1H-pyrazolo[3,4-d]pyrimidin-6-yl)piperidine-4-carboxamide]: the IC50 was < 100 nM.

In the case of `Cn1nc(-c2cc(C(F)(F)F)c(F)c(O)c2F)c2cnc(N3CCC4(CCNC4=O)CC3)nc21` [Compound 18.10, 8-(3-(2,4-Difluoro-3-hydroxy-5-(trifluoromethyl)phenyl)-1-methyl-1H-pyrazolo[3,4-d]pyrimidin-6-yl)-2,8-diazaspiro[4.5]decan-1-one], the IC50 was < 100 nM.

For `Cn1nc(-c2cc(C(F)(F)F)c(F)c(O)c2F)c2cnc(N3[C@@H]4CNC[C@H]3COC4)nc21` [Compound 18.11, 3-(6-((1R,5S)-3-oxa-7,9-diazabicyclo[3.3.1]nonan-9-y1)-1-methyl-1H-pyrazolo[3,4-d]pyrimidin-3-y1)-2,6-difluoro-5-(trifluoromethyl)phenol], the IC50 lay within 100 to 1000 nM.

Consider `Cn1nc(-c2cc(C(F)(F)F)c(F)c(O)c2F)c2cnc(N3CC4(CCCNC4=O)C3)nc21` [Compound 18.12, 2-(3-(2,4-Difluoro-3-hydroxy-5-(trifluoromethyl)phenyl)-1-methyl-1H-pyrazolo[3,4-d]pyrimidin-6-yl)-2,6-diazaspiro[3.5]nonan-5-one], for which the IC50 fell in the range of 100 to 1000 nM.

Turning to `Cn1nc(-c2cc(C(F)(F)F)c(F)c(O)c2F)c2cnc(N3CCC34CCOCC4)nc21` [Compound 18.13, 2,6-Difluoro-3-(1-methy1-6-(7-oxa-1-azaspiro[3.5]nonan-1-y1)-1H-pyrazolo[3,4-d]pyrimidin-3-y1)-5-(trifluoromethyl)phenol], the IC50 is < 100 nM.

Take `Cn1nc(-c2cc(C(F)(F)F)c(F)c(O)c2F)c2cnc(N3CCC(CO)CC3)nc21` [Compound 18.14, 2,6-Difluoro-3-(6-(4-(hydroxymethyl)piperidin-1-y1)-1-methyl-1H-pyrazolo[3,4-d]pyrimidin-3-y1)-5-(trifluoromethyl)phenol]: the IC50 is < 100 nM.

With `Cn1nc(-c2cc(C(F)(F)F)c(F)c(O)c2F)c2cnc(N3CCC4(CCC(=O)N4)CC3)nc21` [Compound 18.15, 8-(3-(2,4-Difluoro-3-hydroxy-5-(trifluoromethyl)phenyl)-1-methyl-1H-pyrazolo[3,4-d]pyrimidin-6-yl)-1,8-diazaspiro[4.5]decan-2-one], the IC50 was < 100 nM.

Turning to `Cn1nc(-c2cc(C(F)(F)F)c(F)c(O)c2F)c2cnc(N3CCC4(CC3)CC(=O)N4)nc21` [Compound 18.16, 7-(3-(2,4-Difluoro-3-hydroxy-5-(trifluoromethyl)phenyl)-1-methyl-1H-pyrazolo[3,4-d]pyrimidin-6-yl)-1,7-diazaspiro[3.5]nonan-2-one], the IC50 was < 100 nM.

On to `CN1CCN(c2ncc3c(-c4cc(C(F)(F)F)c(F)c(O)c4F)nn(C)c3n2)CC12CC2` [Compound 18.17, 2,6-Difluoro-3-(1-methyl-6-(4-methyl-4,7-diazaspiro[2.5]octan-7-y1)-1H-pyrazolo[3,4-d]pyrimidin-3-y1)-5-(trifluoromethyl)phenol], for which the IC50 was < 100 nM.

In the case of `Cn1nc(-c2cc(C(F)(F)F)c(F)c(O)c2F)c2cnc(N3CCNC4(CC4)C3)nc21` [Compound 18.18, 2,6-Difluoro-3-(1-methyl-6-(4,7-diazaspiro[2.5]octan-7-y1)-1H-pyrazolo[3,4-d]pyrimidin-3-y1)-5-(trifluoromethyl)phenol], the IC50 is < 100 nM.

Consider `CCN1CCN(c2ncc3c(-c4cc(C(F)(F)F)c(F)c(O)c4F)nn(C)c3n2)CC1=O` [Compound 18.19, 4-(3-(2,4-Difluoro-3-hydroxy-5-(trifluoromethyl)phenyl)-1-methyl-1H-pyrazolo[3,4-d]pyrimidin-6-yl)-1-ethylpiperazin-2-one], for which the IC50 was 100 to 1000 nM.

With `COCC1(N(C)c2ncc3c(-c4cc(C(F)(F)F)c(F)c(O)c4F)nn(C)c3n2)CCC1` [Compound 18.20, 2,6-Difluoro-3-(6-((1-(methoxymethyl)cyclobutyl)(methy 1)amino)-1-methy1-1H-pyrazolo[3,4-d]pyrimidin-3-y1)-5-(trifluoromethyl)phenol], the IC50 is < 100 nM.

With `Cn1nc(-c2cc(C(F)(F)F)c(F)c(O)c2F)c2cnc(N3CCN(C4CC4)C(=O)C3)nc21` [Compound 18.21, 1-Cyclopropyl-4-(3-(2,4-difluoro-3-hydroxy-5-(trifluoromethyl)phenyl)-1-methyl-1H-pyrazolo[3,4-d]pyrimidin-6-y1)piperazin-2-one], the IC50 is < 100 nM.

In the case of `CC(=O)NC1CCN(c2ncc3c(-c4cc(C(F)(F)F)c(F)c(O)c4F)nn(C)c3n2)CC1` [Compound 18.22, N-(1-(3-(2,4-Difluoro-3-hydroxy-5-(trifluoromethyl)phenyl)-1-methyl-1H-pyrazolo[3,4-d]pyrimidin-6-y1)piperidin-4-yl)acetamide], the IC50 was < 100 nM.

`Cn1nc(-c2cc(C(F)(F)F)c(F)c(O)c2F)c2cnc(N3CCC(NS(C)(=O)=O)CC3)nc21` [Compound 18.23, N-(1-(3-(2,4-Difluoro-3-hydroxy-5-(trifluoromethyl)phenyl)-1-methyl-1H-pyrazolo[3,4-d]pyrimidin-6-yl)piperidin-4-yl)methanesulfonamide]: the IC50 is < 100 nM.

Turning to `Cn1nc(-c2cc(C(F)(F)F)c(F)c(O)c2F)c2cnc(N3CCC4(CCN4)CC3)nc21` [Compound 18.24, 2,6-Difluoro-3-(1-methyl-6-(1,7-diazaspiro[3.5]nonan-7-yl)-1H-pyrazolo[3,4-d]pyrimidin-3-y1)-5-(trifluoromethyl)phenol], the IC50 was in the range of 100 to 1000 nM.

As for `Cn1nc(-c2cc(C(F)(F)F)c(F)c(O)c2F)c2cnc(N3CCC4(CC3)CNC4=O)nc21` [Compound 18.25, 7-(3-(2,4-Difluoro-3-hydroxy-5-(trifluoromethyl)phenyl)-1-methyl-1H-pyrazolo[3,4-d]pyrimidin-6-yl)-2,7-diazaspiro[3.5]nonan-1-one], the IC50 was < 100 nM.

Turning to `Cn1nc(-c2cc(C(F)(F)F)c(F)c(O)c2F)c2cnc(N3CCC4(CCCC(=O)N4)CC3)nc21` [Compound 18.26, 9-(3-(2,4-Difluoro-3-hydroxy-5-(trifluoromethyl)phenyl)-1-methyl-1H-pyrazolo[3,4-d]pyrimidin-6-yl)-1,9-diazaspiro[5.5]undecan-2-one], the IC50 was < 100 nM.

With `CC(C)C(=O)NC1CCN(c2ncc3c(-c4cc(C(F)(F)F)c(F)c(O)c4F)nn(C)c3n2)CC1` [Compound 18.27, N-(1-(3-(2,4-Difluoro-3-hydroxy-5-(trifluoromethyl)phenyl)-1-methyl-1H-pyrazolo[3,4-d]pyrimidin-6-y1)piperidin-4-yl)isobutyramide], the IC50 is < 100 nM.

Take `CC(=O)N(C)C1CCN(c2ncc3c(-c4cc(C(F)(F)F)c(F)c(O)c4F)nn(C)c3n2)CC1` [Compound 18.28, N-(1-(3-(2,4-Difluoro-3-hydroxy-5-(trifluoromethyl)phenyl)-1-methyl-1H-pyrazolo[3,4-d]pyrimidin-6-yl)piperidin-4-y1)-N-methylacetamide]: the IC50 was < 100 nM.
